Columns and labels:
[1] = Microsomal intrinsic clearance, human liver microsomes; format: in vitro ADME; settings: human liver microsomes (pooled), pH 7.4, 45 min, NADPH
Description: (§1) The compounds of the invention (1 μM) were incubated in suspension with human (rat or mouse) liver microsomes pooled from multiple donors (>10) and samples taken at 5 time points over the course of a 45 min experiment and analysed by LC MS/MS. Microsomes (final protein concentration 0.5 mg/mL), 0.1 M phosphate buffer pH 7.4 and test compound (final substrate concentration 1 μM; final DMSO concentration 0.25%) were pre-incubated at 37° C. prior to the addition of NADPH (final concentration 1 mM) to initiate the reaction. A minus cofactor control incubation was included for each compound tested where 0.1 M phosphate buffer pH 7.4 is added instead of NADPH (minus NADPH). All incubations were performed in duplicate for each test compound and the results averaged. Each compound is incubated for 0, 5, 15, 30 and 45 min. The control (minus NADPH) was incubated for 45 min only. The reactions were stopped by transferring incubate into acetonitrile at the appropriate time points, in a 1:3 ratio.
(§2) The termination plates were centrifuged at 3,000 rpm for 20 min at 4° C. to precipitate the protein. Following protein precipitation, the sample supernatants were combined in cassettes of up to 4 compounds, internal standard added and samples analysed by LC-MS/MS. From a plot of ln peak area ratio (compound peak area/internal standard peak area) against time, the gradient of the line is determined. Subsequently, half-life (t½) and intrinsic clearance (CLint) are calculated using the equations below: Elimination rate constant (k)=(−gradient) Half-life (t1/2)(min)=0.693/k Intrinsic clearance (i.e. CLint)(μL/min/mg protein)=V×0.693/t1/2 where V=Incubation volume (μL)/Microsomal protein (mg)
(§3) Verapamil and dextromethorphan were included in the assay as controls and if the values for these compounds were not within the specified limits the results were rejected and the experiment repeated.

[2] = test system: Plasmodium falciparum (3D7); assay: In-vitro potency against P. falciparum (3D7 strain), SYBR Green growth inhibition; format: cell-based; settings: P. falciparum 3D7, asexual intraerythrocytic stage, SYBR Green fluorescence
Description: Cultures of the widely-used malaria reference strain of chloroquine-sensitive Plasmodium falciparum (3D7) were maintained in a 1.25% suspension of human red blood cells cultured in RPMI 1640 medium (pH 7.3) supplemented with 0.5% Albumax II (Gibco Life Technologies, San Diego, CA), 12 mM sodium bicarbonate, 0.2 mM hypoxanthine, and 20 mg/L gentamicin at 37° C., in an atmosphere of 1% O2, 3% CO2 with a balance of nitrogen (Human malaria parasites in continuous culture. Trager W et al., 1976, Science, 193: 673-675). Growth inhibition was quantified using a fluorescence assay utilising the binding of SYBR Green (Novel, rapid, and inexpensive cell-based quantification of antimalarial drug efficacy. Bennett T. N. et al., 2004, Antimicrob. Agents Chemother., 48: 1807-1810) to double stranded DNA, which emits a fluorescent signal at 528 nm after excitation at 485 nm. Mefloquine was used as a drug control to monitor the quality of the assay (Z′=0.6 to 0.8, where Z′ is a measure of the discrimination between the positive and negative controls on a screen plate). Hits were confirmed by full-potency curves with dose-response curves determined from a minimum of 3 independent experiments. Compound bioactivity was expressed as EC50, the effective concentration of compound causing 50% parasite death. All data were processed using IDBS ActivityBase. Raw data was converted into percent inhibition through linear regression by setting the high inhibition control as 100% and the no inhibition control as 0%. Quality control criteria for passing plates were as follows: z′>0.5, S:B>3, % CV(no inhibition control)<15. The formula used to calculate z′ is
Curve fitting was carried out using the following 4 parametric equation:
where A=% inhibition at bottom, B=% inhibition at top, C=EC50, D=slope, x=inhibitor concentration and y=% inhibition. If curve definition was poor, B was fixed to 100.

[3] = Microsomal intrinsic clearance, rat liver microsomes; format: in vitro ADME; settings: rat liver microsomes (pooled), pH 7.4, 45 min, NADPH
Description: as §1, §2, §3

[4] = PK parameters in mouse (IV and PO); format: in vivo; settings: for PK parameters (mouse): F: 10 mg/kg IV and 10 mg/kg PO; for clearance / half-life: male, Swiss Albino, plasma, IV arm, 10 mg/kg; for clearance: read-out: PK parameters (mouse): Cl; for half-life: read-out: PK parameters (mouse): t1/2
Description: Swiss Albino male mice or Sprague Dawley rats (TCGLS, India) were kept under a 12/12 h light/dark cycle, 22±2° C. temp, 50±20% RH with free access to food and water ad libitum. Mice were selected randomly/based on body weight/age and fasted for 4 h before dosing and until 2 h after dosing. Three mice were used per route of administration. […]
(§4) Blood samples were taken (mice 50 μL, rat 100 μL) at regular timepoints from the saphenous vein (conscious restrained animals) and collected into heparinized capillary tubes and transferred into 0.5 mL microcentrifuge tubes. Samples were processed by centrifugation at 1640 g for 10 min at +4° C. within 30 min of collection and stored at −20° C. until bioanalysis. All samples were mixed with ice-cold acetonitrile containing an internal standard, centrifuged at 4000 rpm for 15 min at 15° C. Supernatant was then half diluted in water and analysed by LCMS/MS analysis to determine analyte peak area/IS peak area (the ratio). Concentration (plasma) of the compounds of the invention was determined by reference to a calibration curve. Pharmacokinetic parameters (Cmax, Tmax, AUC, t1/2, CL, Vd, BA) were calculated using WinNonLin, using non-compartmental analysis (Phoenix, Version 6.3). The pharmacokinetic parameters for compounds shown in Table 2 support that compounds of the invention have pharmacokinetic properties associated with treatment of malaria via the oral route and that compounds have substantially longer half-lives than the reference compound.

[5] = PK parameters in rat (IV and PO); format: in vivo; settings: for PK parameters (rat): F: 1 mg/kg IV and 3 mg/kg PO; for clearance / half-life: Sprague Dawley, plasma, IV arm, 1 mg/kg; for clearance: read-out: PK parameters (rat): Cl; for half-life: read-out: PK parameters (rat): t1/2
Description: Swiss Albino male mice or Sprague Dawley rats (TCGLS, India) were kept under a 12/12 h light/dark cycle, 22±2° C. temp, 50±20% RH with free access to food and water ad libitum. Mice were selected randomly/based on body weight/age and fasted for 4 h before dosing and until 2 h after dosing. Three mice were used per route of administration. For IV determination (1 mg/kg, dose volume 5 ml/kg) the dose was administered by injection into the lateral tail vein (rats are anaesthetized using 3% v/v isoflurane: oxygen mixture). For PO determination (3 mg/kg, dose volume 10 ml/kg) the dose was administered by oral gavage in conscious animals.
as §4

[6] = Microsomal intrinsic clearance, mouse liver microsomes; format: in vitro ADME; settings: mouse liver microsomes (pooled), pH 7.4, 45 min, NADPH
Description: as §1, §2, §3

[7] = Hepatocyte intrinsic clearance, cryopreserved human hepatocytes; format: in vitro ADME; settings: cryopreserved human hepatocytes in suspension (pooled), 60 min
Description: The compounds of the invention (3 μM) were incubated in suspension with cryopreserved human (rat or mouse) hepatocytes pooled from multiple donors (>10) and samples taken at 6 time points over the course of a 60 min experiment and analysed by LC MS/MS. Williams E media supplemented with 2 mM L-glutamine and 25 mM HEPES and test compound (final substrate concentration 3 μM; final DMSO concentration 0.25%) were pre-incubated at 37° C. prior to the addition of a suspension of cryopreserved hepatocytes (final cell density 0.5×10^6 viable cells/mL in Williams E media supplemented with 2 mM L glutamine and 25 mM HEPES) to initiate the reaction. The final incubation volume is 500 μL. The reactions are stopped by transferring aliquots of incubate into acetonitrile at the appropriate time points, in a 1:2 ratio. The termination plates are centrifuged at 3,000 rpm for 20 min at 4° C. to precipitate the protein. Following protein precipitation, the sample supernatants were combined in cassettes of up to 4 compounds, internal standard was added and analysed by LC MS/MS. From a plot of ln peak area ratio (compound peak area/internal standard peak area) against time, the gradient of the line was determined. Subsequently, half-life (t½) and intrinsic clearance (CLint) were calculated using the equations below: Elimination rate constant (k)=(−gradient) Half-life (t½) (min)=0.693/k Intrinsic clearance (i.e. CLint) (μL/min/million cells)=V×0.693/t1/2
where V=Incubation volume (μL)/Number of cells
Verapamil and umbelliferone were included in the assay as controls and if the values for these compounds are not within the specified limits the results were rejected and the experiment repeated.

Row | SMILES | microsomal CLint at 1 μM [1] [µL/min/mg] | EC50 [2] [nM] | microsomal CLint at 1 μM [3] [µL/min/mg] | PK parameters (mouse): F [4] | clearance [4] [mL/min/kg] | half-life [4] [min] | PK parameters (rat): F [5] | clearance [5] [mL/min/kg] | half-life [5] [min] | microsomal CLint at 1 μM [6] [µL/min/mg] | hepatocyte CLint at 3 μM [7] [µL/min/1e6 cells]
1 | CC(C)Oc1ccc(C2C(C(=O)Nc3ccc(F)c(C#N)c3)c3ccccc3C(=O)N2CC(F)(F)F)cn1 (racemic) [(2), (+, −)-N-(3-cyano-4-fluorophenyl)-3-(6-isopropoxypyridin-3-yl)-1-oxo-2-(2,2,2-trifluoroethyl)-1,2,3,4-tetrahydroisoquinoline-4-carboxamide] | 13 | 80 | – | – | – | – | – | – | – | – | –
2 | N#Cc1cc(NC(=O)[C@H]2c3ccccc3C(=O)N(CC(F)(F)F)[C@@H]2c2ccc(C(F)(F)F)nc2)ccc1F [(3a), (3S,4S)—N-(3-cyano-4-fluorophenyl)-1-oxo-2-(2,2,2-trifluoroethyl)-3-(6-(trifluoromethyl)pyridin-3-yl)-1,2,3,4-tetrahydroisoquinoline-4-carboxamide] | 6 | 70 | < 10 | F = 95% | 1.67 | 660 | F = 95% | 0.667 | 660 | < 10 | < 10
3 | N#Cc1cc(NC(=O)[C@H]2c3ccccc3C(=O)N(CC(F)(F)F)[C@@H]2c2ccc(OCC(F)(F)F)nc2)ccc1F [(4a), (3S,4S)—N-(3-cyano-4-fluorophenyl)-1-oxo-3-(6-(2,2,2-trifluoroethoxy)pyridin-3-yl)-2-(2,2,2-trifluoroethyl)-1,2,3,4-tetrahydroisoquinoline-4-carboxamide] | < 3 | 53 | < 10 | F = 56% | 2.67 | 2460 | F = 33% | 0.5 | 5100 | < 10 | < 3
4 | CC(=O)Nc1ccc([C@@H]2[C@@H](C(=O)Nc3ccc(F)c(C#N)c3)c3ccccc3C(=O)N2CC(F)(F)F)cn1 [(5a), (3S,4S)-3-(6-acetamidopyridin-3-yl)-N-(3-cyano-4-fluorophenyl)-1-oxo-2-(2,2,2-trifluoroethyl)-1,2,3,4-tetrahydroisoquinoline-4-carboxamide] | – | 40 | – | – | – | – | – | – | – | – | –
5 | N#Cc1ccc([C@@H]2[C@@H](C(=O)Nc3ccc(F)c(C#N)c3)c3ccccc3C(=O)N2CC(F)(F)F)cn1 [(6a), (3S,4S)—N-(3-cyano-4-fluorophenyl)-3-(6-cyanopyridin-3-yl)-1-oxo-2-(2,2,2-trifluoroethyl)-1,2,3,4-tetrahydroisoquinoline-4-carboxamide] | < 3 | 68 | – | – | – | – | – | – | – | < 10 | < 3
6 | N#Cc1cc(NC(=O)[C@H]2c3ccccc3C(=O)N(CC(F)(F)F)[C@@H]2c2ccc(OC(F)F)nc2)ccc1F [(7a), (3S,4S)—N-(3-cyano-4-fluorophenyl)-3-(6-(difluoromethoxy)pyridin-3-yl)-1-oxo-2-(2,2,2-trifluoroethyl)-1,2,3,4-tetrahydroisoquinoline-4-carboxamide] | < 3 | 68 | – | F = 108% | 2.67 | 1080 | F = 108% | 1.5 | 2280 | < 10 | < 10
7 | N#Cc1cc(NC(=O)[C@H]2c3ccccc3C(=O)N(CC(F)(F)F)[C@@H]2c2ccc(C(F)F)nc2)ccc1F [(8a), (3S,4S)—N-(3-cyano-4-fluorophenyl)-3-(6-(difluoromethyl)pyridin-3-yl)-1-oxo-2-(2,2,2-trifluoroethyl)-1,2,3,4-tetrahydroisoquinoline-4-carboxamide] | < 3 | 59 | – | F = 37% | 3.33 | 3360 | – | – | – | < 10 | 4
